According to EP3483233A1, “LUBRICANT BASE OIL COMPOSITIONS OF MONO-UNSATURATED DIBASIC ACID ESTERS WITH BRANCHED ALCOHOLS” (ARKEMA FRANCE, priority 2017, dated 2019):
Several values for one entry are separate records, joined by “and”; a condition that tells them apart may be missing. Identical values can stand only once.

Key:
Format in all cases: physicochemical
[1] = Thin film test, oxidative stability (time to insoluble residues and to solidification); settings: 500 µm thick films at 120°C; for Vapor loss at solidification: at the duration of full film solidification
From the text: (§1) The exact procedure, used here, has been described in detail by Stoncius, A. et al. in "Volatiles from Thin Film Degradation of Bio-based, Synthetic and Mineral Basestocks", published in Industrial Lubrication & Tribology, 2013, 65 (3) 209-215, 2013, Emerald Group Publishing Edition or by Brazinskiene, D. et al. in "Ester Basestock Vaporisation from Thin Oil Films", published in Lubrication Science, DOI: 10.1002/ls.1372, pp 1-17, 2017, Wiley Edition.
(§2) Briefly, an oil film of 500 µm thickness was coated on steel coupon and heated at given temperature for specific duration in a forced-draft oven. Afterwards, the volatile losses and insoluble residues were measured gravimetrically.
Therefore, thin films of commercial basestocks and α-ω dibasic esters were compared by exposing their thin films to 120°C as described by Stoncius, A. et al. in "Volatiles from Thin Film Degradation of Bio-based, Synthetic and Mineral Basestocks" published in Industrial Lubrication & Tribology, 2013, 65 (3), 209-215, Emerald Group Publishing Edition or by Brazinskiene, D. et al. in "Ester Basestock Vaporisation from Thin Oil Films" published in Lubrication Science, DOI: 10.1002/ls.1372, pp 1-17, 2017, Wiley Edition.
The thin-film method determines how resistant oil is against formation of insoluble residues during oxidation. Degradation durations until initial formation of solid residues and complete solidification directly relate to oxidative stability.

[2] = Thin film test, volatile losses (500 µm oil film on steel coupon, forced-draft oven, gravimetric); settings: for Volatile emissions, 16 hrs / Volatile emissions, 36 hrs: 500 µm thick films at 120°C
From the text: as §1, §2
As discussed in the prior-art review, volatility can be successfully evaluated in a thin film test as described by Stoncius, A. et al. in "Volatiles from Thin Film Degradation of Bio-based, Synthetic and Mineral Basestocks" published in Industrial Lubrication & Tribology, 2013, 65 (3) 209-215, Emerald Group Publishing Edition or by Brazinskiene, D. et al. in "Ester Basestock Vaporisation from Thin Oil Films" published in Lubrication Science, DOI: 10.1002/ls.1372, pp 1-17, 2017, Wiley Edition. This thin-film method is much better suited for hydraulic fluid applications than NOACK or other tests, which employ 250°C or similar temperatures, related to engine oil applications. Also, the above method accounts for longer term decomposition reactions due to exposure to metal surfaces and oxidation, which is prevalent in hydraulic applications. Therefore, using the thin-film method short-term vapor losses were measured after 16 hrs and decomposition trends were compared after 36 hrs of testing. Heating temperature of 120°C was selected to compare thin films of α,ω dibasic esters with commercial basestocks. Table 5. Volatile emissions, % w/w from 500 µm thick films of α-ω dibasic esters and commercial basestocks at 120°C

[3] = Kinematic viscosity with capillary Cannon-Fenske viscometers; Viscosity Index calculated per ASTM D2270; settings: for Viscosity Index: calculated per ASTM D2270 from viscosities at 40°C and 100°C; for Viscosity, mm^2/s at 40°C: kinematic viscosity at 40°C; for Viscosity, mm^2/s at 100°C: kinematic viscosity at 100°C
Protocol: Kinematic viscosities at 40°C and 100°C were measured using capillary Cannon-Fenske viscometers per ASTM […]. Viscosity Index (the value, describing the rate of thinning with increasing temperature) was calculated per ASTM D2270.

[4] = Pour point and cloud point, cooling regime of ASTM D97; settings: for Cloud point, °C: visual inspection during the same run; for low temperature fluidity: result in words
Protocol: Pour points and cloud points were determined using the same thermal cooling regime, as instructed by ASTM D97. The sample sizes were 5 to 15 mL during the measurements.
Cloud points were determined during the same run by visual inspection of the sample appearance at low temperature. The samples were removed from the freezer every 3°C for visual inspection and, if cloudy, meniscus movement with inversion. The pour point resembled the last measurement, at which the meniscus boundary was still moving within 5 seconds of horizontal inversion. All samples were tested in duplicate.
In engine oils and hydraulic fluids, low temperature fluidity is primarily determined by pour points [ASTM D97]. Generally, pour points below -30°C are considered sufficient. Some polymer additives, e.g. "Pour Point Depressants" (PPD), are able to improve low temperature fluidity. […] Therefore, initially pour points and cloud points [ASTM D2500 "Standard Test Method for Cloud Point of Petroleum Products and Liquid Fuels"] of α-ω dibasic esters were evaluated and shown in Table 4.

[5] = Solubility of lubricant additives in the basestocks
Protocol: Several typical lubricant additives have been tested for solubility in α-ω dibasic esters of 2-ethyl hexanol 26U18 and 26S12 as well as commercial basestock 350N. The additives were mixed in at temperatures of 50°C or lower and held for longer than a week at room temperature. Table 7. Solubility of lubricant additives, dissolved in α-ω dibasic esters and commercial basestocks
The additives were selected to represent different chemical categories: soaps, heterocycles, phosphorous derivatives, polymers, etc. Most of these additives are designed to be dissolved in paraffinic mineral oils and synthetic lubricants with some heating. It is often thought that esters are better solvents than mineral oils or synthetic hydrocarbons like poly α-olefins. Therefore, the tested concentrations were much higher than additive proportions for hydraulic fluids, as recommended by the additive manufacturers.

Compound | Full solidification observed [1] [h] | Initial residues observed [1] [h] | Vapor loss at solidification [1] [% w/w] | Volatile emissions, 16 hrs [2] [% w/w] | Volatile emissions, 36 hrs [2] [% w/w] | Viscosity Index [3] | Viscosity, mm^2/s at 40°C [3] | Viscosity, mm^2/s at 100°C [3] [mm^2/s] | Pour point, °C [4] | Cloud point, °C [4] | Solubility of 1% w/w Vanlube 7723 ([5]; Alkyl dithiocarbamate, mixed in at 50°C or lower, held longer than a week at room temperature) | Solubility of 1% w/w Irgalube ML605A ([5]; Amine and phosphate derivatives, mixed in at 50°C or lower, held longer than a week at room temperature) | Solubility of 1% w/w Vanlube 7611 M ([5]; Phosphoro dithioate, mixed in at 50°C or lower, held longer than a week at room temperature) | Solubility of 5% w/w Viscoplex 10-310 ([5]; Poly alkyl methacrylate, mixed in at 50°C or lower, held longer than a week at room temperature) | Solubility of 2% w/w Vanlube RI- A ([5]; Soap and ester derivatives, mixed in at 50°C or lower, held longer than a week at room temperature) | Solubility of 1% w/w Cobratec TT-100 ([5]; Tolyl triazole, mixed in at 50°C or lower, held longer than a week at room temperature) | Initial solution appearance ([5]; all tested additives blended in, unchanged after 1 week at room temperature) | volatility ([2]; result in words, thin films at 120°C) | low temperature fluidity [4]
1,9-di(2-ethylhexyl) nonanedioate [26S9, reference compound] | 553 | 367 | 92 | 2.65 | 4.7 | 111 | 10.5 mm^2/s | 2.8 | -57 °C | -38 °C |  |  |  |  |  |  |  |  | 
1,18-di(1-methylheptyl) octadec-9-enedioate [17U18] | 463 | 343 | 63 | 0.87 | 7 | 205 | 21.2 mm^2/s | 5.35 | -21 °C | -18 °C |  |  |  |  |  |  |  |  | much poorer low temperature fluidity
CCCCCCC(C)OC(=O)CCCCCCCCCCCCCCCCC(=O)OC(C)CCCCCC (stereo not shown) [17S18, 1,18-di(1-methylheptyl) octadecanedioate, reference compound] |  |  |  |  |  | 180 | 22.7 mm^2/s | 5.31 | +9 °C | +9 °C |  |  |  |  |  |  |  |  | very problematic low temperature fluidity
CCCCC(CC)COC(=O)CCCCCCCCCCCCCCCCC(=O)OCC(CC)CCCC (stereo not shown) [26S18, 1,18-di(2-ethylhexyl) octadecanedioate, reference compound] |  |  |  |  |  | 194 | 23.9 mm^2/s | 5.71 | -9 °C | -9 °C |  |  |  |  |  |  |  |  | very problematic low temperature fluidity
CCCCCCC(CCCC)COC(=O)CCCCCCCC=CCCCCCCCC(=O)OCC(CC)CCCC (stereo not shown) [4826U18, 1-(2-butyloctyl)-18-(2-ethylhexyl)octadec-9-enedioate] | 325 | 248 | 57 | 3.8 | 10.1 | 205 | 28.97 mm^2/s | 6.78 | -51 °C | -51 °C |  |  |  |  |  |  |  |  | 

The next lines start with results.

Full solidification observed [1] [h] | Initial residues observed [1] [h] | Vapor loss at solidification [1] [% w/w] | Volatile emissions, 16 hrs [2] [% w/w] | Volatile emissions, 36 hrs [2] [% w/w] | Viscosity Index [3] | Viscosity, mm^2/s at 40°C [3] | Viscosity, mm^2/s at 100°C [3] [mm^2/s] | Pour point, °C [4] | Cloud point, °C [4] | Solubility of 1% w/w Vanlube 7723 ([5]; Alkyl dithiocarbamate, mixed in at 50°C or lower, held longer than a week at room temperature) | Solubility of 1% w/w Irgalube ML605A ([5]; Amine and phosphate derivatives, mixed in at 50°C or lower, held longer than a week at room temperature) | Solubility of 1% w/w Vanlube 7611 M ([5]; Phosphoro dithioate, mixed in at 50°C or lower, held longer than a week at room temperature) | Solubility of 5% w/w Viscoplex 10-310 ([5]; Poly alkyl methacrylate, mixed in at 50°C or lower, held longer than a week at room temperature) | Solubility of 2% w/w Vanlube RI- A ([5]; Soap and ester derivatives, mixed in at 50°C or lower, held longer than a week at room temperature) | Solubility of 1% w/w Cobratec TT-100 ([5]; Tolyl triazole, mixed in at 50°C or lower, held longer than a week at room temperature) | Initial solution appearance ([5]; all tested additives blended in, unchanged after 1 week at room temperature) | volatility ([2]; result in words, thin films at 120°C) | Compound | low temperature fluidity [4]
655 | 583 | 86 | 0.8 | 1.75 | 147 | 14.72 mm^2/s | 3.72 | -48 °C | -30 °C | soluble | soluble | soluble | soluble | soluble | soluble | bright and clear | much lower volatility | 1,12-di(2-ethylhexyl) dodecanedioate [26S12, reference compound] | 
320 | 248 | 47 | 1.7 | 9.8 | 163 | 36.09 mm^2/s | 7.09 | -54 °C | -48 °C |  |  |  |  |  |  |  |  | 1,18-di(2-butyloctyl) octadec-9-enedioate [48U18] | 
324 | 248 | 54 | 3.5 | 10.6 | 174 | 28.7 mm^2/s and 28.74 mm^2/s | 6.39 | -51 °C | -51 °C |  |  |  |  |  |  |  |  | 1,18-di(2-propylheptyl) octadec-9-enedioate [37U18] | 
367 | 344 | 71 | 5 | 13.9 | 202 | 28.8 mm^2/s | 6.7 | -33 °C | -33 °C |  |  |  |  |  |  |  |  | 1,18-di(3,3,5-trimethylhexyl) octadec-9-enedioate [9U18] | 
225 | 152 | 66 | 12.6 | 23.7 | 196 | 12.93 mm^2/s | 3.73 | -24 °C | -24 °C |  |  |  |  |  |  |  |  | 1,18-di(3-methylbutyl) octadec-9-enedioate [5U18] | 
344 | 248 |  | 9.4 | 25.6 | 204 | 8.68 mm^2/s | 2.85 | > +15 °C | > +15 °C |  |  |  |  |  |  |  |  | 1,18-dimethyl octadec-9-enedioate [1U18] | much poorer low temperature fluidity
176 | 152 | 39 | 6.7 | 13.4 | 175 | 42.54 mm^2/s | 8.3 | -66 °C | -63 °C |  |  |  |  |  |  |  |  | 1-(3,7,11,15-tetra methyl-2-hexadecenyl) - 18-(2-ethylhexyl) octadec-9-enedioate [2026U18] | 
